# Data published in ChEMBL document CHEMBL5385901, “Drug repurposing of propafenone to discover novel anti-tumor agents by impairing homologous recombination to delay DNA damage recovery of rare disease conjunctival melanoma” (Eur J Med Chem, 2023).
# Calls of active or inactive are those of the source. The rule behind the calls is not given here.
# Experiments:
# [1] = system: CRMM-1; test: Induction of DNA damage in human CRMM-1 cells assessed as decrease in MRE11 level measured after 48 hrs by immunoblot analysis; type: functional, cell-based; conditions: dose <= 10.0 µM
# [2] = system: CRMM-1; test: Induction of DNA damage in human CRMM-1 cells assessed as increase in p53 level upto 10 uM by immunoblot analysis; type: functional, cell-based
# [3] = system: CRMM-1; test: Induction of DNA double strand breaks in human CRMM-1 cells assessed as gamma-H2AX accumulation upto 10 uM by immunoblot analysis; type: functional, cell-based
# [4] = system: CRMM-2; test: Induction of DNA damage in human CRMM-2 cells assessed as increase in p53 level upto 10 uM by immunoblot analysis; type: functional, cell-based
# [5] = system: CRMM-2; test: Induction of DNA damage in human CRMM-2 cells assessed as decrease in MRE11 level measured after 48 hrs by immunoblot analysis; type: functional, cell-based; conditions: dose <= 10.0 µM
# [6] = system: CRMM-1; test: Induction of DNA damage in human CRMM-1 cells assessed as decrease in […] level upto 10 uM measured after 48 hrs by immunoblot analysis; type: functional, cell-based
# [7] = system: CRMM-1; test: Induction of DNA damage in human CRMM-1 cells assessed as decrease in RAD51 level upto 10 uM measured after 48 hrs by immunoblot analysis; type: functional, cell-based
# [8] = system: CRMM-2; test: Induction of DNA damage in human CRMM-2 cells assessed as decrease in RAD51 level upto 10 uM measured after 48 hrs by immunoblot analysis; type: functional, cell-based
# [9] = system: CRMM-1; test: Induction of DNA damage in human CRMM-1 cells assessed as decrease in RAD50 level measured after 48 hrs by immunoblot analysis; type: functional, cell-based; conditions: dose <= 10.0 µM
# [10] = system: CRMM-1; test: Induction of DNA double strand breaks in human CRMM-1 cells assessed as gamma-H2AX accumulation at 1 uM measured after 24 hrs immunofluorescence based confocal microscopy; type: functional, cell-based
# [11] = system: CRMM-1; test: Induction of apoptosis in human CRMM-1 cells at 0.1 uM measured after 48 hrs by DAPI/Annexin-V-PE staining based flow cytometry; type: functional, cell-based
# [12] = system: CRMM-2; test: Induction of DNA damage in human CRMM-2 cells assessed as decrease in NBS1 level measured after 48 hrs by immunoblot analysis; type: functional, cell-based; conditions: dose <= 10.0 µM
# [13] = target: T1, Double-strand break repair protein MRE11 (Homo sapiens) (UniProt P49959); test: Inhibition of his-tagged human MRE11 endonuclease activity using phage X174 circular ssDNA as substrate at 10 to 300 uM incubated for 30 mins by chemiluminescence based analysis; conditions: dose 10-300 µM
# T1 sequence (whole entry): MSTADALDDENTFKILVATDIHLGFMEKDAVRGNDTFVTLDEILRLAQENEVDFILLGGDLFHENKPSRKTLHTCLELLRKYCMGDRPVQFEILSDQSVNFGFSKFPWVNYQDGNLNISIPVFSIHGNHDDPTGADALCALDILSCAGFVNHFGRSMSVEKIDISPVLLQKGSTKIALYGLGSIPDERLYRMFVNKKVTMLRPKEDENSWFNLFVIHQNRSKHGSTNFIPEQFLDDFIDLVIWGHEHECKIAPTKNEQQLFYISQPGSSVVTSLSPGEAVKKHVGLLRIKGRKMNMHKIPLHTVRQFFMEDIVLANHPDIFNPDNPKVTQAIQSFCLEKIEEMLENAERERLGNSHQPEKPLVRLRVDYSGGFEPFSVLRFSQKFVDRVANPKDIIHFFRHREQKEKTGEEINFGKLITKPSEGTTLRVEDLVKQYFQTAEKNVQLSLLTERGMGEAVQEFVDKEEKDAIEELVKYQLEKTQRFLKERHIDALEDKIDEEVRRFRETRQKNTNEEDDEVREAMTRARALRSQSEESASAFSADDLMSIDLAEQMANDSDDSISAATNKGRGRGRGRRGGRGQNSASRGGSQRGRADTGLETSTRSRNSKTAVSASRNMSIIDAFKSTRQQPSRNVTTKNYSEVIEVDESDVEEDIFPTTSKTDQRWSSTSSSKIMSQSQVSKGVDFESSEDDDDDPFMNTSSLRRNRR
# [14] = system: CRMM-1; test: Induction of apoptosis in human CRMM-1 cells at 0.3 to 3 uM measured after 48 hrs by DAPI/Annexin-V-PE staining based flow cytometry; type: functional, cell-based; conditions: dose 0.3-3 µM
# [15] = system: CRMM-1; test: Induction of DNA damage in human CRMM-1 cells assessed as decrease in NBS1 level measured after 48 hrs by immunoblot analysis; type: functional, cell-based; conditions: dose <= 10.0 µM
# [16] = system: CRMM-2; test: Induction of DNA double strand breaks in human CRMM-2 cells assessed as gamma-H2AX accumulation at 1 uM measured after 24 hrs immunofluorescence based confocal microscopy; type: functional, cell-based
# [17] = system: CRMM-2; test: Induction of DNA damage in human CRMM-2 cells assessed as decrease in RAD50 level measured after 48 hrs by immunoblot analysis; type: functional, cell-based; conditions: dose <= 10.0 µM
# [18] = system: CRMM-2; test: Induction of DNA double strand breaks in human CRMM-2 cells assessed as gamma-H2AX accumulation upto 10 uM by immunoblot analysis; type: functional, cell-based
# [19] = system: CRMM-2; test: Induction of DNA damage in human CRMM-2 cells assessed as decrease in […] level upto 10 uM measured after 48 hrs by immunoblot analysis; type: functional, cell-based
# [20] = Antiproliferative activity against human CM-AS16 cells assessed as cell growth inhibition incubated for 72 hrs by CCK8 assay; type: functional, cell-based; conditions: CM-AS16, 72 h
# [21] = system: CRMM-1; test: Induction of apoptosis in human CRMM-1 cells at 3 uM measured after 48 hrs by DAPI/Annexin-V-PE staining based flow cytometry relative to control; type: functional
# [22] = system: CRMM-1; test: Antiproliferative activity against human CRMM-1 cells assessed as cell growth inhibition incubated for 72 hrs by CCK8 assay; type: functional, cell-based; conditions: CRMM-1, 72 h
# [23] = Antiproliferative activity against human PIG1 cells assessed as cell growth inhibition incubated for 72 hrs by CCK8 assay; type: toxicity, cell-based
# [24] = target: T2, Double-strand break repair protein MRE11 (Homo sapiens, UniProt P49959); test: Binding affinity to his-tagged recombinant human MRE11 assessed as dissociation constant by MST assay
# T2 sequence (P49959 whole entry): T1 sequence (whole entry)
# [25] = Inhibition of homologous recombination in human CRMM-1 cells at 10 uM incubated for 12 hrs by real-time PCR analysis relative to control; type: functional
# [26] = Antiproliferative activity against human HL7702 cells assessed as cell growth inhibition incubated for 72 hrs by CCK8 assay; type: toxicity, cell-based; conditions: HL7702 (L02) cells
# [27] = Antiproliferative activity against human CM2005.1 cells assessed as cell growth inhibition incubated for 72 hrs by CCK8 assay; type: functional, cell-based; conditions: CM2005.1, 72 h
# [28] = system: CRMM-2; test: Antiproliferative activity against human CRMM-2 cells assessed as cell growth inhibition incubated for 72 hrs by CCK8 assay; type: functional, cell-based; conditions: CRMM-2, 72 h
# [29] = system: CRMM-1; test: Inhibition of cell migration in human CRMM-1 cells assessed as migration rate at 0.3 uM measured after 72 hrs by wound healing assay (reference value: 70 %); type: functional; set-up: scale not given: the % may be the effect or the level left
smiles,measurement,setting,value
O=C(CCCc1ccccc1)c1c(OCCCN2CCNCC2)ccc2ccccc12 [listing 1 of 2 here],Activity,[1],Dose-Dependent Effect
same,Activity,[2],Active
same,Activity,[3],Active
same,Activity,[4],Active
same,Activity,[5],Dose-Dependent Effect
same,Activity,[6],Active
same,Activity,[7],Active
same,Activity,[8],Active
same,Activity,[9],Dose-Dependent Effect
same,Activity,[10],Active
same,Activity,[11],inactive
same,Activity,[12],Dose-Dependent Effect
same,inhibition,[13],Active
same,Activity,[14],Active
same,Activity,[15],Dose-Dependent Effect
same,Activity,[16],Active
same,Activity,[17],Dose-Dependent Effect
same,Activity,[18],Active
same,Activity,[19],Active
O=C(CCCc1ccccc1)c1c(OCCCN2CCNCC2)ccc2ccccc12 [listing 2 of 2 here],IC50,[20],2900 nM
same,Activity,[21],80%
same,IC50,[22],1300 nM
same,IC50 at 72 h,[23],32900 nM
same,Kd,[24],4300 nM
same,inhibition at 10 µM,[25],89.5%
same,IC50 at 72 h,[26],25600 nM
same,IC50,[27],1000 nM
same,IC50,[28],700 nM
same,Activity,[29],45%
